IC50 data for 14 compounds are collected here from patent US8367658B2, “Pyrazin-2-yl-pyridin-2-yl-amine and pyrazin-2-yl-pyrimidin-4-yl-amine compounds and their use” (Cancer Research Technology Limited, priority 2007, dated 2013).

Molecules are shown by their SMILES. Values joined by “and” are separate entries in the source; they are usually repeats but may differ in a detail not shown here. Equal values may be shown once. Some results are limits rather than exact numbers.

In this assay the target is T1, CHK1 (Homo sapiens, UniProt O14757).
T1 sequence (O14757 1-476): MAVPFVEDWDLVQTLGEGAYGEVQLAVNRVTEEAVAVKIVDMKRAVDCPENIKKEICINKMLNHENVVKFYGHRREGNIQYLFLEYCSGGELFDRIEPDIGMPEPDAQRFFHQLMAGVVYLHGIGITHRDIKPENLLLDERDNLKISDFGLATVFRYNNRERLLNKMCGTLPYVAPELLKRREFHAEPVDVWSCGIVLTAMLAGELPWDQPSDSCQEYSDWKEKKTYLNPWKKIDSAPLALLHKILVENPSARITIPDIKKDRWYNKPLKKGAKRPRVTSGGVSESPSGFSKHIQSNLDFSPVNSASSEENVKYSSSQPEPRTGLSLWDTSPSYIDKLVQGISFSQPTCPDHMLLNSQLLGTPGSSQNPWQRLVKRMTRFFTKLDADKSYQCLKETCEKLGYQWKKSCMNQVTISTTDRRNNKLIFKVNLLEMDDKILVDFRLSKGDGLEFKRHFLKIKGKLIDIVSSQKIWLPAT
The experiment in a line: CHK1 kinase function inhibition assay (DELFIA, phosphorylation of a CDC25C peptide). The note with it: CHK1 1 nM, ATP 30 μM, 30 minutes at room temperature. The assay is classed as biochemical. As to the method:
Measurement of Inhibition of CHK1 Kinase Function
CHK1 kinase function was measured in a DELFIA® assay in order to monitor phosphorylation of a CDC25C peptide using a specific phospho antibody.
The reaction mixture was incubated for 30 minutes at room temperature and then stopped by the addition of buffer (125 μL) containing 40 mM EDTA, 0.05% Tween 20, 0.1% BSA in TBS (10× concentrate, Sigma). An aliquot (100 μL) of the stopped reaction mixture was transferred to a black neutravidin-coated plate (Perbio) and incubated for 1 hour on a shaker (Titertek, Flow Laboratories) at room temperature. […] The plates were washed a further four times with wash buffer before the addition of enhancement solution (100 μL/well, PerkinElmer Life Sciences).
The compound `COCc1cccc(-c2cnc(Nc3cnc(C#N)cn3)cc2NC2CCN(C)CC2)c1` [Compound Y-115, 5-(5-(3-(methoxymethyl)phenyl)-4-(1-methylpiperidin-4-ylamino)pyridin-2-ylamino)pyrazine-2-carbonitrile] gave a concentration for half-maximal inhibition (IC50) of no more than 100 nM.
As for `N#Cc1cnc(Nc2cc(OCC3CCOC3)c(NC(=O)CCC3CCNCC3)cn2)cn1` (centres unmarked) [Compound Y-068, N-(6-(5-Cyanopyrazin-2-ylamino)-4-((tetrahydrofuran-3-yl)methoxy)pyridin-3-yl)-3-(piperidin-4-yl)propanamide], the figure is 1000 to 10000 nM; as for `N#Cc1cnc(Nc2cc(NCC3CCCNC3)c(-n3cccc3)cn2)cn1` (centres unmarked) [Compound Y-056, 5-(4-(Piperidin-3-ylmethylamino)-5-(1H-pyrrol-1-yl)pyridin-2-ylamino)pyrazine-2-carbonitrile], no more than 100 nM; as for `N#Cc1cnc(Nc2cc(NCC3CCCNC3)c(-n3ccc(C(=O)NCCO)c3)cn2)cn1` (centres unmarked) [Compound Y-066, 1-(6-(5-Cyanopyrazin-2-ylamino)-4-(piperidin-3-ylmethylamino)pyridin-3-yl)-N-(2-hydroxyethyl)-1H-pyrrole-3-carboxamide], 100 to 1000 nM.
As for `COC(=O)c1cnc(Nc2cnc(C)cn2)cc1NCC1CCNCC1` [Compound Y-036, Methyl 6-(5-methylpyrazin-2-ylamino)-4-(piperidin-4-ylmethylamino)nicotinate], the figure is ≤ 1000 nM and 100 to 1000 nM; as for `COCCNC(=O)c1cnc(Nc2cnc(C#N)cn2)cc1NCC1CCNCC1` [Compound Y-084, 6-(5-Cyanopyrazin-2-ylamino)-N-(2-methoxyethyl)-4-(piperidin-4-ylmethylamino)nicotinamide], no more than 100 nM.
As for `COCC#Cc1cnc(Nc2cnc(C#N)cn2)cc1NC[C@@H]1CNCCO1` [Compound Y-154, (S)-5-(5-(3-Methoxyprop-1-ynyl)-4-(morpholin-2-ylmethylamino)pyridin-2-ylamino)pyrazine-2-carbonitrile], the figure is no more than 100 nM.
For the compound `COCCOc1ccc(-c2cnc(Nc3cnc(C#N)cn3)cc2NC2CCN(C)CC2)cc1` [Compound Y-117, 5-(5-(4-(2-Methoxyethoxy)phenyl)-4-(1-methylpiperidin-4-ylamino)pyridin-2-ylamino)pyrazine-2-carbonitrile], the IC50 was no more than 100 nM.
`N#Cc1cnc(Nc2cc(NCCC[C@H](N)C(=O)Nc3ccccc3)c(N)cn2)cn1` [Compound Y-052, (S)-2-Amino-5-(5-amino-2-(5-cyanopyrazin-2-ylamino)pyridin-4-ylamino)-N-phenylpentanamide]: the IC50 was 1000 to 10000 nM.
As for `COC(=O)c1cnc(Nc2cnc(C#N)cn2)cc1N[C@H]1CCN[C@H](C(=O)Nc2ccccc2)C1` [Compound Y-028, Methyl 6-(5-cyanopyrazin-2-ylamino)-4-((2S,4S)-2-(phenylcarbamoyl)piperidin-4-ylamino)nicotinate], the figure is ≤ 1000 nM and 100 to 1000 nM.
With `COC(=O)c1cnc(Nc2cnc(C#N)cn2)cc1NC(C)C1CCNCC1` (centres unmarked) [Compound Y-022, Methyl 6-(5-cyanopyrazin-2-ylamino)-4-(1-(piperidin-4-yl)ethylamino)nicotinate] the figure was no more than 100 nM.
With `N#Cc1cnc(Nc2cc(NCC3CCNCC3)c(-c3ccc4c(c3)OCCO4)cn2)cn1` [Compound Y-134, 5-(5-(2,3-Dihydrobenzo[b][1,4]dioxin-6-yl)-4-(piperidin-4-ylmethylamino)pyridin-2-ylamino)pyrazine-2-carbonitrile] the figure was 100 to 1000 nM; with `CN1CCC(N(C)c2cc(Nc3cnc(C#N)cn3)ncc2-c2ccccc2)CC1` [Compound Y-113, 5-(4-(methyl(1-methylpiperidin-4-yl)amino)-5-phenylpyridin-2-ylamino)pyrazine-2-carbonitrile], 100 to 1000 nM.
Compound `COC(=O)c1cnc(Nc2cnc(C)cn2)cc1NC1CCN(C)CC1` [Compound Y-105, methyl 4-(1-methylpiperidin-4-ylamino)-6-(5-methylpyrazin-2-ylamino)nicotinate] registered an IC50 of no more than 100 nM.

Usually IC50 stands for the concentration needed to halve the response being measured. Read a high IC50 as a need for much substance.
